Legend:
male Wistar rats = assay: Sleep-wakefulness monitoring (SCORE-2000) in rats; format: in vivo, rat; settings: CT-18
Procedure: Food and water were available ad libitum.
Treatments were administered orally as a bolus.
A parallel group study design was employed.

[1] = target: T1, human recombinant M1 expressed in CHO cells (Homo sapiens, UniProt P11229); assay: M1 muscarinic receptor binding assay
T1 construct: purchased PerkinElmer, Inc., Wellesley, Mass; host or cells: CHO cells
T1 sequence (P11229 1-460): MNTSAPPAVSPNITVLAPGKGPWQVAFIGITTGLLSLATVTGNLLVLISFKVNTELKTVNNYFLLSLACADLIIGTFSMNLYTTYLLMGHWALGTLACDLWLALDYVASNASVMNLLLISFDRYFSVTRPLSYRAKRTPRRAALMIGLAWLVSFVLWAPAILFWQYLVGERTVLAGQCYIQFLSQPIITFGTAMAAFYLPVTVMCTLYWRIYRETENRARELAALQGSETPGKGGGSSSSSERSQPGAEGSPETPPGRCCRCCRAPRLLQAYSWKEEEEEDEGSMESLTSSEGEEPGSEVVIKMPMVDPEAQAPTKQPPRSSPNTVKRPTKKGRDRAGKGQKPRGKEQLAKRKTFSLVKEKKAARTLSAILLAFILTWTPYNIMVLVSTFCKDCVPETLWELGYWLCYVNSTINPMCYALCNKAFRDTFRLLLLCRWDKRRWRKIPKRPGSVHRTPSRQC

[2] = target: T2, human recombinant M3 expressed in CHO cells (Homo sapiens, UniProt P20309); assay: M3 muscarinic receptor binding assay
T2 construct: purchased PerkinElmer, Inc., Wellesley, Mass; host or cells: CHO cells
T2 sequence (P20309 whole entry): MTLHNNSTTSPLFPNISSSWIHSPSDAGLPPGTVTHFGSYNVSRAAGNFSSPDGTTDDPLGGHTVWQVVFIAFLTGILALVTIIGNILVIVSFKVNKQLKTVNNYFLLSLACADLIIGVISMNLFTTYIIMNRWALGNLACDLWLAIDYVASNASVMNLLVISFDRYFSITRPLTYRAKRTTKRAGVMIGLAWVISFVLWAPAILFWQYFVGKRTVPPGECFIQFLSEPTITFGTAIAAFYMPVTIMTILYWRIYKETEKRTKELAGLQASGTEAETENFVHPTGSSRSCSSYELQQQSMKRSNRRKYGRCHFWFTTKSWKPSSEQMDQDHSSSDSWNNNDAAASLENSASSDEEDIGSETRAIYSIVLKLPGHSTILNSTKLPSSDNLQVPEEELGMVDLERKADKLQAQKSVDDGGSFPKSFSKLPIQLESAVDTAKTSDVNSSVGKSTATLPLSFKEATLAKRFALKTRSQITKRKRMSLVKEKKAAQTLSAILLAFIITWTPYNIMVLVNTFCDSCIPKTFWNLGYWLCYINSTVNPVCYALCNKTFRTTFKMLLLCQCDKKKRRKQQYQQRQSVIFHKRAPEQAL

[3] = target: T3, human recombinant M2 expressed in CHO cells (Homo sapiens, UniProt P08172); assay: M2 muscarinic receptor binding assay
T3 construct: purchased PerkinElmer, Inc., Wellesley, Mass; host or cells: CHO cells
T3 sequence (P08172 1-466): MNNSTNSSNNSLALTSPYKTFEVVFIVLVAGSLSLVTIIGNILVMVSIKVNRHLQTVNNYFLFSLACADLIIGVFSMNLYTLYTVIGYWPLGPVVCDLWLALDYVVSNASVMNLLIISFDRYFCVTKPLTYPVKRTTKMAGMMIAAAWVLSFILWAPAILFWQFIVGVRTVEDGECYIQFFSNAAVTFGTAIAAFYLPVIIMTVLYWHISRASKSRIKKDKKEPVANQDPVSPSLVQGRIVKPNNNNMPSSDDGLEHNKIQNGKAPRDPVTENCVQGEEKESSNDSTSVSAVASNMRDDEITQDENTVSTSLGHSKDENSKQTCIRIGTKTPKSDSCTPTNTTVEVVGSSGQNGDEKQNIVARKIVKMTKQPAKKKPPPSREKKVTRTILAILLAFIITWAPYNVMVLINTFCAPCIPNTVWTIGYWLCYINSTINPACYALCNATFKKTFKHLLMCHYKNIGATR

[4] = tested on: monkey cryopreserved hepatocytes; assay: Metabolism in monkey cryopreserved hepatocytes; format: in vitro ADME; settings: primate hepatocytes, 1 μM, in % (unit assumed)
Procedure: (§1) Metabolism of test articles in monkey and human cryopreserved hepatocytes was assayed as follows:
(§2) Sample is diluted with DMSO, to prepare 100 μM and 10 μM stocks. 0.1% formic acid in acetonitrile is prepared by the addition of 1 mL formic acid per 1 L acetonitrile (store RT for 3 months). 10 minute, 60 and 120 minute 96 well quenching plates are prepared with 150 μL acetonitrile+0.1% formic acid in each well. Store on ice or refrigerated.
(§3) Next, hepatocytes are thawed and 100 μL of cell suspension is placed into a microfuge tube with 100 μL 0.4% Trypan Blue solution and gently mix by inversion. A small amount of the stained cell suspension (approximately 15 μL) is placed into a clean hemacytometer with a coverslip. The hemacytometer is placed onto the stage of the microscope and the focus and power are adjusted until a single counting square fills the field. The number of cells in the four outside corner subdivided squares of the hemacytometer are counted. Viable cells are opalescent, round, and pale with a darker outline. Non-viable cells are dark, opaque blue.
(§4) 198 μL of hepatocytes are transferred to relevant wells on dosing plate.
(§5) Plates are preincubated for at least 15 min. Reactions are started 2 μL of appropriate test compound dilution from dosing plate. […]

[5] = tested on: human cryopreserved hepatocytes; assay: Metabolism in human cryopreserved hepatocytes; format: in vitro ADME; settings: 1 μM, in % (unit assumed)
Procedure: as §1, §2, §3, §4, §5

H1 histamine receptor = target: T4, H1 histamine receptor (Bos taurus, UniProt P30546); settings: reference compounds; read-out: Ki of reference compounds in H1 binding assay (unit inferred); cited from earlier work
T4 construct: the receptors were obtained from bovine cerebellar membrane tissue; from tissue; host or cells: bovine cerebellar membranes
T4 sequence (P30546 whole entry): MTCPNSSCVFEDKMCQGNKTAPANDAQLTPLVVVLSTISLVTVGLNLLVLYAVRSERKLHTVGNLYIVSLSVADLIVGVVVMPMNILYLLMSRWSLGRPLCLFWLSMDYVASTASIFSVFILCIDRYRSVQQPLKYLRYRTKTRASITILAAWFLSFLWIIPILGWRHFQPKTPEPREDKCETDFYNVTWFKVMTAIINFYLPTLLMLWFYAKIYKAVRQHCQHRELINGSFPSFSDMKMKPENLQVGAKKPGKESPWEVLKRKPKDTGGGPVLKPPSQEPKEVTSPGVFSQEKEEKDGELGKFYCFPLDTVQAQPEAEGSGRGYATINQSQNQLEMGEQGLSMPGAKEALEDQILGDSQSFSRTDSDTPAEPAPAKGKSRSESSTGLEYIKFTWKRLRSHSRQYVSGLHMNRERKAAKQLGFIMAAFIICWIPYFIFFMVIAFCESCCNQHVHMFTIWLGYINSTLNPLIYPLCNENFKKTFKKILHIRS

CC(C)(CN1CCN(C2=Nc3cc(Br)ccc3Oc3ccccc32)CC1)C(=O)O [Compound 17]
LUSB (longest uninterrupted sleep bout) (male Wistar rats; 10 mg/kg oral): 5.0 ± 2.0 min

COc1ccc2c(c1)N=C(N1CCN(CC(C)(C)C(=O)O)CC1)c1cc(C)ccc1O2 [Compound 56]
LUSB (longest uninterrupted sleep bout) (male Wistar rats; 10 mg/kg oral): 11.7 ± 2.3 min

Cc1ccc2c(c1)N=C(N1CCN(CC(C)(C)C(=O)O)CC1)c1ccc(C)cc1O2 [Compound 52]
LUSB (longest uninterrupted sleep bout) (male Wistar rats; 10 mg/kg oral): 15.9 ± 2.3 min

CC(C)(CN1CCN(C2=Nc3ccccc3Oc3ccccc32)CC1)C(=O)NS(C)(=O)=O [Compound 40]
LUSB (longest uninterrupted sleep bout) (male Wistar rats; 10 mg/kg oral): 7.6 ± 4.2 min | LUSB (longest uninterrupted sleep bout) (male Wistar rats; 30 mg/kg oral): 16.4 ± 2.9 min

Cc1ccc2c(c1)N=C(N1CCN(CC(C)(C)C(=O)O)CC1)c1ccccc1O2 [Compound 19]
LUSB (longest uninterrupted sleep bout) (male Wistar rats; 3 mg/kg oral): 18.6 ± 3.3 min | LUSB (longest uninterrupted sleep bout) (male Wistar rats; 10 mg/kg oral): 11.7 ± 4.0 min

Cc1ccc2c(c1)N=C(N1CCN(CC(C)(C)C(=O)O)CC1)c1cc(C)ccc1O2 [Compound 20]
LUSB (longest uninterrupted sleep bout) (male Wistar rats; 10 mg/kg oral): 4.7 ± 2.3 min

CC(C)(CCN1CCN(C2=Nc3ccccc3Oc3ccc(Cl)cc32)CC1)C(=O)O [Compound 6]
Ki [1]: > 10 µM | Ki [2]: > 10 µM | Ki [3]: > 10 µM

Cc1ccc2c(c1)Oc1ccccc1N=C2N1CCN(CC(C)(C)C(=O)O)CC1 [Compound 46]
LUSB (longest uninterrupted sleep bout) (male Wistar rats; 1 mg/kg oral): 4.1 ± 1.6 min | LUSB (longest uninterrupted sleep bout) (male Wistar rats; 3 mg/kg oral): 17 ± 4.4 min | LUSB (longest uninterrupted sleep bout) (male Wistar rats; 10 mg/kg oral): 11.1 ± 3.7 min

CC(C)(CN1CCN(C2=Nc3ccccc3Oc3ccccc32)CC1)C(=O)O [Compound 1]
LUSB (longest uninterrupted sleep bout) (male Wistar rats; 1 mg/kg oral): 6.0 ± 2.3 min | LUSB (longest uninterrupted sleep bout) (male Wistar rats; 3 mg/kg oral): 18.8 ± 3.0 min | LUSB (longest uninterrupted sleep bout) (male Wistar rats; 10 mg/kg oral): 19.7 ± 6.7 min

CC(C)(CN1CCN(C2=Nc3ccccc3Oc3ccc(Br)cc32)CC1)C(=O)O [Compound 8]
LUSB (longest uninterrupted sleep bout) (male Wistar rats; 10 mg/kg oral): 16.7 ± 3.0 min

CC(C)(CN1CCN(C2=Nc3ccccc3Oc3ccc(Cl)cc32)CC1)C(=O)O [Compound 5]
LUSB (longest uninterrupted sleep bout) (male Wistar rats; 3 mg/kg oral): 13.5 ± 4.0 min | LUSB (longest uninterrupted sleep bout) (male Wistar rats; 10 mg/kg oral): 8.7 ± 3.3 min | remaining 120 minutes after treatment [4]: 75.105 | remaining 120 minutes after treatment [5]: 90.405

COc1ccc2c(c1)C(N1CCN(CC(C)(C)C(=O)O)CC1)=Nc1cc(Br)ccc1O2 [Compound 51]
LUSB (longest uninterrupted sleep bout) (male Wistar rats; 10 mg/kg oral): 10.1 ± 3.6 min

Cc1ccc2c(c1)C(N1CCN(CC(C)(C)C(=O)O)CC1)=Nc1cc(Br)ccc1O2 [Compound 50]
LUSB (longest uninterrupted sleep bout) (male Wistar rats; 10 mg/kg oral): 3.4 ± 2.6 min

COc1ccc2c(c1)C(N1CCN(CC(C)(C)C(=O)O)CC1)=Nc1cc(C)ccc1O2 [Compound 54]
LUSB (longest uninterrupted sleep bout) (male Wistar rats; 10 mg/kg oral): 11.1 ± 2.9 min

COc1ccc2c(c1)C(N1CCN(CC(C)(C)C(=O)O)CC1)=Nc1ccccc1O2 [Compound 12]
LUSB (longest uninterrupted sleep bout) (male Wistar rats; 1 mg/kg oral): 7.7 ± 3.2 min | LUSB (longest uninterrupted sleep bout) (male Wistar rats; 3 mg/kg oral): 8.3 ± 3.0 min | LUSB (longest uninterrupted sleep bout) (male Wistar rats; 10 mg/kg oral): 18.1 ± 2.1 min

COc1ccc2c(c1)N=C(N1CCN(CC(C)(C)C(=O)O)CC1)c1ccc(OC)cc1O2 [Compound 42]
LUSB (longest uninterrupted sleep bout) (male Wistar rats; 10 mg/kg oral): 4.8 ± 2.7 min

CN(C)CCCSC(=N)N [dimaprit]
Ki (H1 histamine receptor): > 110 µM

— patent US8101596B2, “Loxapine analogs and methods of use thereof” (Hypnion Inc., priority 2004, dated 2012)
